Source: PMC11110755, “Structure-based virtual screening of unbiased and RNA-focused libraries to identify new ligands for the HCV IRES model system” (RSC Medicinal Chemistry, 2024)
In brackets after ≈: the same amount, converted by molar mass. Several values for one entry are separate records, joined by “and”; a condition that tells them apart may be missing. Equal values may be shown once. Entries after “also recorded” stand apart in the source; their conditions may differ. Read-outs that look alike come from different tables or passages of the source.

Columns and labels:
HCV IRES subdomain IIa [1] = assay: FRET assay monitoring ligand-induced conformational change of Cy3/Cy5-labelled HCV IRES subdomain IIa; type: biochemical, hepatitis C virus; conditions: for EC50: 100 nM Cy3/Cy5-labelled RNA, 10 mM HEPES pH 7.0, 2 mM MgCl2, 2% DMSO, ≥ = lower limit; for FRET-signal change / conformational change of HCV IRES subdomain IIa, in words: pre-screening 1000, 100, 10 and 0.001 μM
Method: For the FRET assay, a two stranded HCV IRES subdomain IIa carrying a 5′-Cy3-label on one and 5′-Cy5-label on the other strand (Cy3-[…], Cy5-[…], Biomers.net GmbH) was used as described previously.[22,53] All samples containing labelled RNA were treated under light protection. FRET experiments were performed on a Tecan Spark 10 M plate reader (excitation/emission: 480/670 nm) using black half area 96 well microplates (Greiner Bio-One), based on a protocol by Zhou et al.[53] The 5′-Cy3- and 5′-Cy5-labelled single strands were annealed by heating to 75 °C in FRET buffer (10 mM HEPES pH 7.0, 2 mM MgCl2) and cooled down to room temperature for at least 20 min. The 5′-Cy3/Cy5-labelled RNA was diluted to 100 nM in FRET buffer and supplemented with compounds 8–28 in appropriate concentrations. Compounds 4 and 5 were used as positive controls. For the initial screening, compounds were added in final concentrations of 1000, 100, 10 and 0.001 μM (Fig. S4 ^†). If a concentration dependent reduction of the FRET signal (Cy5-emission) was observed, EC50-values were determined using ligand concentrations from 1 mM to 100 nM in 3.16-fold (semi-logarithmic) dilution series. For those compounds, the Cy3 emission was measured at 535 nm to confirm a conformational change dependent reduction in the Cy5 emission signal via Cy3 emission increase (Fig. S7 ^†). For each experiment, one DMSO negative control was carried out. The final DMSO concentration was always 2%. Excitation and emission spectra were recorded for the Cy3/Cy5-labelled RNA (100 nM) in FRET buffer to confirm excitation (Cy3) and emission (Cy5) wavelength as well as for each compound (1 μM) in FRET buffer to exclude any interference with the cyanine dyes. All measurements were performed at least as triplicates for screening and EC50-determination.
(§1) FRET experiments were analyzed using GraphPad Prism (version 8.0.1., GraphPad Software, Boston, Massachusetts USA, https://www.graphpad.com).

HCV IRES subdomain IIa [2] = test system: HCV IRES subdomain IIa; design: method as in PMID 16279767, PMID 24930829, PMID 27775338; conditions: previously reported, Fig. 1; read-out: EC50 (FRET assay); cited from earlier work
HCV IRES subdomain IIa [3] = target: HCV IRES subdomain IIa; design: method as in PMID 16279767; conditions: previously reported; read-out: KD (MS assay); cited from earlier work
[4] = test system: HCV IRES subdomain IIa in presence of total RNA from yeast; assay: Selectivity FRET assay in presence of competing total RNA from yeast; type: biochemical, hepatitis C virus; conditions: 1:5 m/m HCV IRES : total RNA from yeast
Method: For the HCV IRES-binding compounds (4, 5, 8–13, 8a–8c), a selectivity FRET assay in presence of total RNA from yeast (Roche) was performed. The ratio of the FRET HCV IRES subdomain IIa construct and the total RNA was set to 1 : 5 m/m. The preparation of the labelled RNA and the compounds was the same as in the binding assay. The yeast RNA was diluted to 7.88 mg L^−1 and supplemented with 100 nM HCV IRES and appropriate concentrations of the compounds (3.16-fold dilution series) in FRET buffer (Fig. S10 ^†). For each compound, triplicate measurements were performed. For each experiment, one DMSO negative control was carried out. The final DMSO concentration was always 2%.
as §1

[5] = test system: SAM VI-Riboswitch aptamer domain; assay: MST off-target counter screen, SAM VI-riboswitch aptamer domain; type: binding, B. angulatum; conditions: 1000, 100, 10 and 0.001 μM
Method: (§2) Off-target counter screens by MST were performed as described previously.[31,84] Briefly, the 5′-Cy5-labelled Tte preQ1-Riboswitch aptamer domain (Biomers.net GmbH) was heated to 75 °C for 5 min, cooled down to room temperature for at least 20 min and then diluted to 20 nM in MST buffer (50 mM Tris-HCl pH 7.5, 100 mM KCl, 25 mM MgCl2) and supplemented with compounds 4, 5, 8–13, 18, 21, 22 and 26 to final concentrations of 1000, 100, 10 and 0.001 μM. PreQ1 was used as a positive control. The 5′-Cy5-labelled B. angulatum SAM VI-Riboswitch aptamer domain (Eurofins Genomics GmbH) was heated to 75 °C for 5 min, cooled down to room temperature for at least 20 min and then diluted to 20 nM in MST buffer (50 mM Tris-HCl pH 7.5, 100 mM KCl, 25 mM MgCl2) and supplemented with compounds 5, 9 and 28 to final concentrations of 1000, 100, 10 and 0.001 μM. SAM was used as a positive control. For each experiment, one DMSO negative control was carried out. The final DMSO concentration was 2%. All measurements were performed at least as duplicates for pre-screening and triplicates for KD-determination. MST measurements were analyzed from signals after 18 s laser on-time using the MO.Affinity Analysis software (version 2.3) and exported for statistical analysis and plotting in GraphPad Prism (version 8.0.1., GraphPad Software, Boston, Massachusetts USA, https://www.graphpad.com).

[6] = target: Tte preQ1-Riboswitch aptamer domain; assay: MST off-target counter screen, preQ1-riboswitch aptamer domain; type: binding, Thermoanaerobacter tengcongensis; conditions: for preQ1-riboswitch binding / selectivity (MST-shift), in words: 1000, 100, 10 and 0.001 μM
Method: as §2

HCV IRES subdomain IIa [7] = type: binding, hepatitis C virus; conditions: for Kd: read-out: MST KD
Method: For the MST assay, the same sequence of the two stranded HCV IRES subdomain IIa as for the FRET assay was used. One strand was 5′-Cy5-labelled and the other strand was unmodified ([…], Cy5-[…], Biomers.net GmbH). All samples containing labelled RNA were treated under light protection. MST experiments were performed on a Monolith NT.115 from NanoTemper Technologies using standard uncoated capillaries. The strands were annealed by heating to 75 °C in MST buffer (10 mM HEPES pH 7.0, 2 mM MgCl2) and cooled down to room temperature for at least 20 min. The 5′-Cy5-labelled HCV IRES domain IIa RNA was diluted to 30 nM in MST buffer and supplemented with compounds 8–25 in appropriate concentrations. Compounds 4 and 5 were used as positive controls. For the initial screening, compounds were added to final concentrations of 1000 (or 316 if limited by solubility), 100, 10 and 0.001 μM (Fig. S5 ^†). If a concentration-dependent shift of thermophoresis was observed, KD-values were determined using concentrations ranging from 1 mM (if permitted by solubility, otherwise starting from 316 or 100 μM) to 0.01 μM in a 3.16-fold (semi-logarithmic) dilution series. For each experiment, one DMSO negative control was carried out. Final DMSO concentration was always 2%.
as §2

HCV IRES = test system: HCV IRES; design: method as in PMID 10866369; conditions: previously reported, Fig. 1; cited from earlier work
HCV IRES subdomain IIa [8] = test system: HCV IRES subdomain IIa; design: method as in PMID 25349403; conditions: previous study; cited from earlier work
cellular replicon = test system: cellular replicon; design: method as in PMID 16279767; conditions: cited from earlier work
[9] = 30 nM Cy5-labelled RNA, 10 mM HEPES pH 7.0, 2 mM MgCl2, 2% DMSO, ≥ = no saturation, n.b. no binding observed

Compound: CN(C)CCCn1c(N)nc2ccccc21 [Compound 4]
- EC50 (HCV IRES subdomain IIa [1]): 78 ± 35 µM
- EC50 (HCV IRES subdomain IIa [2]): 50 µM
- Kd (HCV IRES subdomain IIa [3]): 100 µM and ≥ 100 µM
- FRET result in presence of competing total RNA, in words [4]: lower EC50-values

Compound: Nc1nc(N2CCN(Cc3c(Cl)ccc(O)c3Cl)CC2)cc(=O)[nH]1 [Compound 9]
- EC50 (HCV IRES subdomain IIa [1]): 217 ± 41 µM
- FRET-signal change / conformational change of HCV IRES subdomain IIa, in words (HCV IRES subdomain IIa [1]): signals in the FRET assay
- SAM-VI-riboswitch binding (MST-shift), in words [5]: no MST shift; also recorded: no binding; also recorded: no general RNA-promiscuity
- Kd ([6]; 20 nM Cy5-labelled aptamer, read-out: KD preQ1 riboswitch (MST)): 7.8 µM
- preQ1-riboswitch binding / selectivity (MST-shift), in words [6]: Weak preQ1-riboswitch binding; also recorded: binding to the preQ1-riboswitch at very high concentrations
- MST KD (HCV IRES subdomain IIa [7]; [9]): n.b.
- FRET result in presence of competing total RNA, in words [4]: lower EC50-values; also recorded: reduced

Compound: Cc1cc2nc3ccc(N(C)C)cc3nc2cc1N [Compound 1]
- IC50 (Fluci reporter gene assay) (HCV IRES): 0.02 µg/mL (≈ 0.0793 µM)

Compound: CN(C)CCCNc1ccc2nc(N)oc2c1 [Compound 6]
- EC50 (HCV IRES subdomain IIa [2]): 25 µM

Compound: CN(C)C(=O)COC(=O)Cc1ccc(OC(=O)c2ccc(NC(=N)N)cc2)cc1 [Compound 27, Camostat, reference compound]
- FRET-signal change / conformational change of HCV IRES subdomain IIa, in words (HCV IRES subdomain IIa [1]): no binding
- binding to HCV IRES subdomain IIa (MST-shift), in words (HCV IRES subdomain IIa [7]; pre-screening 1000 (or 316), 100, 10 and 0.001 μM): no binding

Compound: CCOc1ccc2c(C)nc(NC(=N)NC)nc2c1 [Compound 8]
- EC50 (HCV IRES subdomain IIa [1]): 413 ± 97 µM
- Kd (HCV IRES subdomain IIa [7]; [9]): ≥ 440 µM

Compound: N=C(N)NCCC[C@H](N)C(=O)O [arginine]
- HCV IRES subdomain IIa binding, in words (HCV IRES subdomain IIa [8]): no binding

Compound: CN(C)CCCn1c(N)nc2ccc3c(c21)CC(CN(C)C)CO3 (stereo not shown) [Compound 5]
- antiviral activity in cellular replicon assay, in words (cellular replicon): antiviral activity
- toxicity in cellular replicon assay, in words (cellular replicon): minimal toxicity
- EC50 (HCV IRES subdomain IIa [1]): 4.9 ± 2.6 µM
- SAM-VI-riboswitch binding (MST-shift), in words [5]: no binding; also recorded: no MST shift
- preQ1-riboswitch binding / selectivity (MST-shift), in words [6]: Weak preQ1-riboswitch binding; also recorded: binding to the preQ1-riboswitch at very high concentrations
- Kd (HCV IRES subdomain IIa [7]; [9]): 5.2 ± 0.8 µM
- EC50 (HCV IRES subdomain IIa [2]): 3.4 µM
- Kd (HCV IRES subdomain IIa [3]): 0.86 µM

Compound: NCc1c[nH]c2nc(N)[nH]c(=O)c12 [preQ1]
- Kd ([6]; positive control, read-out: KD of positive control binding to preQ1-riboswitch (MST)): 0.012 µM

Compound: CNC(=N)Nc1nc(C)c2ccc(OC)cc2n1 [Compound 8b]
- EC50 (HCV IRES subdomain IIa [1]): 61 ± 19 µM
- lipophilic ligand efficiency LLE (HCV IRES subdomain IIa [7]): 2.9
- Kd (HCV IRES subdomain IIa [7]; [9]): 88 ± 2 µM

Compound: CC(C)NCC(O)COc1ccc2[nH]cc(CCN)c2c1 (stereo not shown) [Compound 11]
- EC50 (HCV IRES subdomain IIa [1]): ≥ 500 µM
- Kd (HCV IRES subdomain IIa [7]; [9]): ≥ 100 µM

Compound: CCOc1ccc2c(C)nc(NC(=N)N)nc2c1 [Compound 8a]
- EC50 (HCV IRES subdomain IIa [1]): 88 ± 12 µM
- Kd (HCV IRES subdomain IIa [7]; [9]): 189 ± 20 µM
